Results as given in PMC10560226, “Triepoxide formation by a flavin-dependent monooxygenase in monensin biosynthesis” (Nature Communications, 2023).
Values belong to the molecule of their own block, whether it stands above or below them.

Legend:
[1] = molecular target: MonCI (Streptomyces cinnamonensis); test: ITC; MicroCal ITC200, 25 °C, 100 mM phosphate pH 8.0; MonCI in the cell (60 μM with wild-type MonACPX 1.2 mM in the syringe; 100 μM with control ACP 1.0 mM in the syringe); 20 injections; one site model; performed twice
MonCI [2] = molecular target: T1, MonCI (Streptomyces virginiae, UniProt Q846W9); test: HPLC of epoxide product; format: biochemical; conditions: electron donor, 4 mM; FHB 160 µM, Tris pH 8.0, 30 °C, 6 h
T1 construct: gene monC1; N-terminal 6xHis-tag, pCold vector, E. coli BL21-AI; model covers residues 4-480 (chain A), last residue 496
T1 sequence (Q846W9 1-496): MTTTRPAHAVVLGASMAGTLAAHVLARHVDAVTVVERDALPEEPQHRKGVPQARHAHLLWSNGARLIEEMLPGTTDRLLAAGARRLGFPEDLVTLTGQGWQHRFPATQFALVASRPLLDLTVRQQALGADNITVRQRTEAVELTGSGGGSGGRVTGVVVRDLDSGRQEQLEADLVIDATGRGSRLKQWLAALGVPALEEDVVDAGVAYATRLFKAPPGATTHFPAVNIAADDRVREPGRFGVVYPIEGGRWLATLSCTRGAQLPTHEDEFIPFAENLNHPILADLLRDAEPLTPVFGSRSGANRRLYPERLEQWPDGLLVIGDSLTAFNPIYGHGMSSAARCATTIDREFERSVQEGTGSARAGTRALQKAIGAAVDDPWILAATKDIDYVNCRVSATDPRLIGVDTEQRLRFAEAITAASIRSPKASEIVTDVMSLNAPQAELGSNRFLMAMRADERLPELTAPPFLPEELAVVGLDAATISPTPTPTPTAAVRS

MonCI [3] = molecular target: T1, MonCI; test: LC-MS of epoxide products; format: biochemical; conditions: 160 µM FHB, 15 µM MonCI, 80 µM FAD, Fre, NADH or NADH regeneration (glucose dehydrogenase), 50 mM Tris pH 8.0, 300 mM NaCl, 30 °C, 6 h
MonCI [4] = molecular target: T1, MonCI; test: X-ray crystal structure, […] Å; format: binding; conditions: noncovalently bound, co-purified; isoalloxazine ring in "in" conformation; pH 6.5-6.8 crystals

Kd [1]: 10.7 µM
Molecule: wild-type apo-MonACPX (natural protein)

Molecule: NC(=O)C1=CN([C@@H]2O[C@H](COP(=O)(O)OP(=O)(O)OC[C@H]3O[C@@H](n4cnc5c(N)ncnc54)[C@H](O)[C@@H]3O)[C@@H](O)[C@H]2O)C=CC1 [NADH]
HPLC of epoxide product (MonCI [2]): MonCI has similar preference for NADH and NADPH

Molecule: CC(C)=CCCC(C)=CCCC(C)=CCOC(=O)c1ccc(O)cc1 [FHB, farnesyl 4-hydroxybenzoate]
LC-MS of epoxide products (MonCI [3]): MonCI can perform multiple epoxidations on the same substrate molecule

Molecule: Cc1cc2nc3c(=O)[nH]c(=O)nc-3n(C[C@H](O)[C@H](O)[C@H](O)COP(=O)(O)OP(=O)(O)OC[C@H]3O[C@@H](n4cnc5c(N)ncnc54)[C@H](O)[C@@H]3O)c2cc1C [FAD]
X-ray crystal structure, 1.9 Å (MonCI [4]): One FAD coenzyme and one chloride ion were found in each chain

Kd [1]: 49.8 µM
Molecule: apo-DEBS ACP2 (domain or fragment)
